According to publication doi:10.1101/2023.10.03.560722, “Drug Discovery in Low Data Regimes: Leveraging a Computational Pipeline for the Discovery of Novel SARS-CoV-2 Nsp14-MTase Inhibitors” (bioRxiv, 2024):
Where two headings read alike, the source gives them in different places. Where a SMILES comes first, the peptide text is derived from it. [ ]: non-standard residue; d: D form. The star is where a group is joined. Ac5c = NC1(C(=O)O)CCCC1; Cbz = O=C(OCc1ccccc1)*

Experiments:
SARS-CoV-2 nsp14 MTase = SARS-CoV-2 nsp14 MTase (Severe acute respiratory syndrome coronavirus 2, UniProt P0DTD1); assay: biochemical; type: biochemical; conditions: for nsp14 Inhibition % (100µM) Exp 1 / nsp14 Inhibition % (100µM) Exp 2 / inhibition at 100 µM: compound 100µM; for IC50: nsp14 MTase activity, high-throughput screening follow-up
SARS-CoV-2 = type: cell-based; conditions: Calu-3 cells, lung epithelial SARS-CoV-2 infection model
nsp14 = nsp14 (Severe acute respiratory syndrome coronavirus 2, UniProt P0DTD1); assay: surface plasmon resonance (SPR) binding to immobilized full-length biotinylated nsp14; set-up: species or system SARS-CoV-2
Method: For Surface Plasmon Resonance (SPR), the full-length biotinylated nsp14 was immobilized on the flow cell of a SA sensor chip in 1x HBS-EP buffer, achieving a response of 8000 RU. The assay was performed using the same buffer but with 2% DMSO added. Single-cycle kinetics were employed with a contact time of 60 seconds and a dissociation time of 120 seconds, at a flow rate of 75 µL/min. NSC620333 was tested at a concentration of 10 µM as the highest concentration, and a dilution factor of 0.25 was used to yield five different concentrations.

Row | Compound | nsp14 Inhibition % (100µM) Exp 1 (SARS-CoV-2 nsp14 MTase; replicate experiment 1) | nsp14 Inhibition % (100µM) Exp 2 (SARS-CoV-2 nsp14 MTase; replicate experiment 2) | further results
1 | O=C(O)c1ccc(C(=O)c2ccc(C(=O)c3ccc(C(=O)O)cc3)cc2)cc1 [NSC2269] | 64% | 60% | IC50 (SARS-CoV-2 nsp14 MTase; read-out: IC50): 27 µM
2 | O=C(CN1CCOCC1)C(O)C(O)C(O)CO (stereo not drawn) [NSC4348] | 73% | 61% | IC50 (SARS-CoV-2 nsp14 MTase; read-out: IC50): 34 µM
3 | O=C(O)c1nc(N=Nc2ccc(S(=O)(=O)O)cc2)[nH]c1C(=O)O [NSC4624] | 65% | 47% | 
4 | O=C(N/N=C/[C@H](O)[C@H]1OC(=O)[C@@H](O)[C@H]1O)c1ccncc1 [NSC27605] | 26% | 10% | 
5 | OCC(O)C(O)C(O)C(O)c1nc2ccccc2s1 (stereo not drawn) [NSC34443] | 86% | 81% | IC50 (SARS-CoV-2 nsp14 MTase; read-out: IC50): 57 µM
6 | O=C(NNCNNC(=O)c1ccncc1)c1ccncc1 [NSC39302] | 7% | −2% | 
7 | Nc1nc2nn(-c3ccc(C(=O)NC(CCC(=O)O)C(=O)O)cc3)nc2c(=O)[nH]1 (stereo not drawn) [NSC44037] | 15% | 9% | 
8 | OCCNc1ncnc2c1ncn2[C@@H]1O[C@H](CO)[C@@H](O)[C@H]1O [NSC54251] | 4% | −4% | 
9 | O=C1C2C3C=CC(O3)C2C(=O)N1/N=C/C(O)C(O)C(O)C(O)CO (stereo not drawn) [NSC60360] | 4% | −4% | 
10 | O=c1cc(-c2ccc(O)cc2)oc2c(O)c(O)c(O)c(O)c12 [NSC76988] |  |  | anti-SARS-CoV-2 activity (SARS-CoV-2): demonstrated anti-SARS-CoV-2 activity; IC50 (SARS-CoV-2 nsp14 MTase; IC50 (µM)): 6 µM; inhibition at 100 µM (SARS-CoV-2 nsp14 MTase; replicate experiment 1, read-out: nsp14 Inhibition % (100µM) Exp 1): 100%; inhibition at 100 µM (SARS-CoV-2 nsp14 MTase; replicate experiment 2, read-out: nsp14 Inhibition % (100µM) Exp 2): 99%; direct binding to nsp14 (nsp14): no direct binding was detected
11 | O=C1C=C(O)C(=C/C=C/C=C/c2c(O)cc(O)cc2O)C(O)=C1 [NSC77131] | 99% | 99% | IC50 (SARS-CoV-2 nsp14 MTase; read-out: IC50): 9 µM
12 | Nc1ncnc2c1ncn2[C@H]1C[C@H](O)[C@@H](COP(=O)(O)O)O1 [NSC77680] | 13% | 7% | 
13 | O=C(O)CNC(=O)C1(NC(=O)CNC(=O)OCc2ccccc2)CCCC1 [NSC80136] (Cbz-Gly-[Ac5c]-Gly-OH) | 13% | 2% | 
14 | O=C(CCCCn1ccc(=O)[nH]c1=O)Nc1ccc(C(=O)O)c(O)c1 [NSC92432] | 6% | −1% | 
15 | CN(CC(O)C(O)C(O)C(O)CO)CN1C(=O)C(=O)c2ccccc21 (stereo not drawn) [NSC99790] | 46% | 36% | 
16 | O=S(=O)(O)c1cc(Cl)cc(N=Nc2ccc(O)cc2O)c1O [NSC102798] | 77% | 74% | 
17 | OC1COC(n2cnc3c(=S)nc[nH]c32)C(O)C1O (stereo not drawn) [NSC107661] | 18% | 7% | 
18 | Nc1ncnc2c1ncn2C1OC(CO)C(NC(=O)C(N)Cc2ccccc2)C1O (stereo not drawn) [NSC114010] | 11% | −3% | 
19 | NC(CCC(=O)NC(CSCc1ccc(F)cc1)C(=O)NCC(=O)O)C(=O)O (stereo not drawn) [NSC131119] | 8% | 0% | 
